The record followed here is US20080318954A1, “Compounds” (Cyclacel Limited, priority 2004, published 2008).

Molecules are shown by their SMILES. A value given as a limit tells only on which side of the number the result lay.

Common to all, as to assay type: biochemical
One experiment concerns the target T1, PRAK (Homo sapiens, UniProt Q8IW41).
T1 construct: Dundee University (panel)
In words: Protein kinase panel selectivity screen, PRAK. As to conditions: 1 μM compound; [ATP] 20 μM. The procedure:
(§1) The names of the 29 kinases comprising the selectivity screen, as well as the ATP concentrations used in each kinase case, are given in Table 5. The kinase assays were carried out as described previously.
(§2) Compound XIV at a concentration of 1 μM was screened in the 29-kinase panel (Dundee University) and the results are shown bellow in Table 6.

Another experiment addresses T2, MKK1 (Homo sapiens, UniProt Q02750).
T2 construct: Dundee University (panel)
The experiment can be described thus: Protein kinase panel selectivity screen, MKK1. As to conditions: 1 μM compound; [ATP] 5 μM. The procedure:
as §1, §2

For the next experiment, the target named is T3, CDK2/cyclin A (Homo sapiens, UniProt P24941).
T3 construct: His6 (N); made in house; host or cells: Sf9 insect cells (baculovirus)
In words: CDK/cyclin kinase assay, CDK2/cyclin A. The procedure: (§3) CDK4/cyclin D1, CDK1/cyclin B, CDK2/cyclin E, CDK2/cyclin A, CDK9/cyclin T1 and CDK7/cyclin H, all with a His6 tag on the N-terminus, were expressed in Sf9 insect cells using an appropriate baculovirus construct. Sf9 culture (1.6×10^6 cells/mL) was infected (MOI of 3) for two days. The cells were harvested by low speed centrifugation and the protein was purified from the insect cell pellet by metal affinity chromatography. In short: the insect cell pellet was lysed in Buffer A (10 mM Tris-HCl pH 8.0, 150 mM NaCl, 0.02% NP-40, 5 mM β-mercaptoethanol, 20 mM NaF, 1 mM Na3VO4, and Sigma Protease Inhibitor Cocktail) by sonication. The soluble fraction was cleared by centrifugation and loaded onto Ni-NTA-Agarose (Qiagen). Non-bound protein was washed off with 300 mM NaCl, 5-15 mM imidazole in buffer A and the bound protein was eluted with buffer A supplemented with 250 mM imidazole. The purified proteins were extensively dialyzed against storage buffer (20 mM HEPES pH 7.4, 50 mM NaCl, 2 mM DTT, 1 mM EDTA, 1 mM EGTA, 0.02% NP-40, 10% v/v glycerol) and stored at −70° C.
(§4) Compounds were investigated for their CDK2/cyclin E, CDK2/cyclin A, CDK1/cyclin B, and CDK4/cyclin D1 inhibitory activity. His6-tagged recombinant human cyclin-dependent kinases CDK1/cyclin B1, CDK2/cyclin E, CDK2/cyclin A, and CDK4 were expressed in sf9 insect cells using a baculovirus expression system. Recombinant cyclin D1 was expressed in E. coli. Proteins were purified by metal chelate affinity chromatography to greater than 90% homogeneity. Kinase assays were performed in 96-well plates using recombinant CDK/cyclins. Assays were performed in assay buffer (25 mM β-glycerophosphate, 20 mM MOPS, 5 mM EGTA, 1 mM DTT, 1 mM […], pH 7.4), into which were added 2-4 μg of active enzyme with appropriate substrates (purified histone H1 for CDK1 and CDK2, recombinant GST-retinoblastoma protein (residues 773-928) for CDK4). The reaction was initiated by addition of Mg/ATP mix (15 mM MgCl2+100 μM ATP with 30-50 kBq per well of [γ-^32P]-ATP) and mixtures incubated for 10-45 min, as required, at 30° C. Reactions were stopped on ice, followed by filtration through p81 or GF/C filterplates (for CDK4) (Whatman Polyfiltronics, Kent, UK). After washing 3 times with 75 mM aq orthophosphoric acid, plates were dried, scintillant added and incorporated radioactivity measured in a scintillation counter (TopCount, Packard Instruments, Pangbourne, Berks, UK). Compounds for kinase assays were made up as 10 mM stocks in DMSO and diluted into 10% DMSO in assay buffer. Data was analysed using curve-fitting software (GraphPad Prism version 3.00 for Windows, GraphPad Software, San Diego Calif. USA) to determine IC50 values (concentration of test compound which inhibits kinase activity by 50%).

In a further experiment the target is T4, SAPK2b/p38b2 (Homo sapiens, UniProt Q15759).
T4 construct: Dundee University (panel)
The experiment can be described thus: Protein kinase panel selectivity screen, SAPK2b/p38b2. As to conditions: 1 μM compound; [ATP] 20 μM. On the procedure:
as §1, §2

For another experiment, the target named is T5, CDK1/cyclin B1 (Homo sapiens, UniProt P06493).
T5 construct: His6 (N); made in house; host or cells: Sf9 insect cells (baculovirus)
The experiment can be described thus: CDK/cyclin kinase assay, CDK1/cyclin B1. The procedure: as §3, §4

A further experiment deals with T6, NEK6 (Homo sapiens, UniProt Q9HC98).
T6 construct: Dundee University (screening panel)
The experiment can be described thus: Protein kinase panel selectivity screen, NEK6. As to conditions: 1 μM compound; [ATP] 50 μM. The procedure:
as §1, §2

For a further experiment, the target named is T7, CDK2/cyclin E (Homo sapiens, UniProt P24941).
T7 construct: His6 (N); made in house; host or cells: Sf9 insect cells (baculovirus)
The experiment can be described thus: CDK/cyclin kinase assay, CDK2/cyclin E. The procedure: as §3, §4

For the next experiment, the target named is T8, JNK/SAPK1c (Homo sapiens, UniProt P45983).
T8 construct: Dundee University (panel)
In words: Protein kinase panel selectivity screen, JNK/SAPK1c. As to conditions: 1 μM compound. On the procedure:
as §1, §2

The next experiment concerns the target T9, PKBdelta PH (Homo sapiens, UniProt P31749, S473D).
T9 construct: Dundee University (panel)
In words: Protein kinase panel selectivity screen, PKBdelta PH. As to conditions: 1 μM compound; [ATP] 5 μM. On the procedure:
as §1, §2

A further experiment addresses T10, PDK1 (Homo sapiens, UniProt O15530).
T10 construct: Dundee University (panel)
In words: Protein kinase panel selectivity screen, PDK1. As to conditions: 1 μM compound; [ATP] 20 μM. The procedure:
as §1, §2

T5 sequence (P06493 whole entry): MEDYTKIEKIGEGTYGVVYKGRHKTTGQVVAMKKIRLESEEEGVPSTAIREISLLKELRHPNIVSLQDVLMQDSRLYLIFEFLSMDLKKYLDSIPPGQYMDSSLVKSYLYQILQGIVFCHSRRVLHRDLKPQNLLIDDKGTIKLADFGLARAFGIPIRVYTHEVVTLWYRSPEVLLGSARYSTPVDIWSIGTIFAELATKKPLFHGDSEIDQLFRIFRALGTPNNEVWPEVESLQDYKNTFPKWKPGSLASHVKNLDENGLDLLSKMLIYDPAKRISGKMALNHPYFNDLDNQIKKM
T5 sequence (P14635 whole entry partner): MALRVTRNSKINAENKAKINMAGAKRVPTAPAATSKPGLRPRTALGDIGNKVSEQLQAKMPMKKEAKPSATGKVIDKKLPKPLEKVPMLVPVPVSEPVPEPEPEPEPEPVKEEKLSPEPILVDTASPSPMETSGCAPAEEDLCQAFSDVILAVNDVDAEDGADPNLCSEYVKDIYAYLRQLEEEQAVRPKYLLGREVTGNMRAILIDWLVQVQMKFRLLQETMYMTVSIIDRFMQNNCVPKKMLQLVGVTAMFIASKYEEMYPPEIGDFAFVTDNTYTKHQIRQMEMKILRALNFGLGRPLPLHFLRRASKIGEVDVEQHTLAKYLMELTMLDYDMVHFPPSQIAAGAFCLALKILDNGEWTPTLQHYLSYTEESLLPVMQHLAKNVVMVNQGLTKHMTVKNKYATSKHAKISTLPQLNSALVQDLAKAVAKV
T8 sequence (P45983 whole entry): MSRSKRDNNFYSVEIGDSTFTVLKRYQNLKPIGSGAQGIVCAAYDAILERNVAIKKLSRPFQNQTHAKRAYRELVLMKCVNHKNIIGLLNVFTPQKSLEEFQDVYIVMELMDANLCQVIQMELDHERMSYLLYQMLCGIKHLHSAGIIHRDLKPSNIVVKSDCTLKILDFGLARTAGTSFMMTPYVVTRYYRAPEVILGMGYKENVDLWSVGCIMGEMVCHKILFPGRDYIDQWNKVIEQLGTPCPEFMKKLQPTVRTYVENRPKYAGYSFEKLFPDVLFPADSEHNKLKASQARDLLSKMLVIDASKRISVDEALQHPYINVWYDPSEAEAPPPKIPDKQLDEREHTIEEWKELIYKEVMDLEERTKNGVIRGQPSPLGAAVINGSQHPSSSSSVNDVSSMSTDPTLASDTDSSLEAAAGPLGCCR
T10 sequence (O15530 whole entry): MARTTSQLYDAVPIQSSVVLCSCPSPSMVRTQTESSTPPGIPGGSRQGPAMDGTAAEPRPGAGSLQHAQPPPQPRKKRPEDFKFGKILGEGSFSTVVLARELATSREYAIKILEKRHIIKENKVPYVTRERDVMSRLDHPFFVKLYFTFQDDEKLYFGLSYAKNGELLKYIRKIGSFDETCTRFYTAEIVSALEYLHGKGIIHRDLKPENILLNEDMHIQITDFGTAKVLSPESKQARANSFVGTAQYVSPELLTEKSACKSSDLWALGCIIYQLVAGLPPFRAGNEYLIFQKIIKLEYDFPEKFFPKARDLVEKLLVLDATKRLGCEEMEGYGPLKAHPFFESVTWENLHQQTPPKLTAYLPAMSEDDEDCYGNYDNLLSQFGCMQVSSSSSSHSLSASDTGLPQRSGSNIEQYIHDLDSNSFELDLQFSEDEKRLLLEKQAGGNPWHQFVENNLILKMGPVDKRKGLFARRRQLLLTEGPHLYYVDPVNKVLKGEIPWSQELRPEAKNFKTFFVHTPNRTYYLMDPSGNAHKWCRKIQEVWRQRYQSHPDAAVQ
T1 sequence (Q8IW41 whole entry, species assumed): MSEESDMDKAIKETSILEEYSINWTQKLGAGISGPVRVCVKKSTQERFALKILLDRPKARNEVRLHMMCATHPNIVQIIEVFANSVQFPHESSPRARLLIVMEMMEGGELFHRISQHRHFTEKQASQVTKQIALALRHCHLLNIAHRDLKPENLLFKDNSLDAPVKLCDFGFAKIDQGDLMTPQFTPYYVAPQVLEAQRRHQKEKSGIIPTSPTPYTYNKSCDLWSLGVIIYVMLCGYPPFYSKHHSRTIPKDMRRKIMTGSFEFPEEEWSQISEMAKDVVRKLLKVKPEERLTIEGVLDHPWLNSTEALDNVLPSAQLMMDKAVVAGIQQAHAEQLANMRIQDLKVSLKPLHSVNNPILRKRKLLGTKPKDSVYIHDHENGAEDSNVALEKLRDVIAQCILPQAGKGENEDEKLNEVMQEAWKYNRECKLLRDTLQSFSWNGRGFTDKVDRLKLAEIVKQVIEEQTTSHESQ
T9 sequence (P31749 118-480 S473D limits assumed): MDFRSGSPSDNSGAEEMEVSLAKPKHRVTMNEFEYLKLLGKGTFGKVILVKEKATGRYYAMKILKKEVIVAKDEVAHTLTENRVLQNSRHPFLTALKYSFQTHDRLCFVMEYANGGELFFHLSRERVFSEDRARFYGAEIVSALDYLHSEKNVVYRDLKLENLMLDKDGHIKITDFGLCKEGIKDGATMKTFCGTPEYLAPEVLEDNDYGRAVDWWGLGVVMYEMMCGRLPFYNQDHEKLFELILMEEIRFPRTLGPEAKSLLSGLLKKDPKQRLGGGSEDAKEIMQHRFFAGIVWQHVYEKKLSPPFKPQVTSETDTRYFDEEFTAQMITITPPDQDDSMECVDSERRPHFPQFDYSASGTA
T6 sequence (Q9HC98 whole entry, species assumed): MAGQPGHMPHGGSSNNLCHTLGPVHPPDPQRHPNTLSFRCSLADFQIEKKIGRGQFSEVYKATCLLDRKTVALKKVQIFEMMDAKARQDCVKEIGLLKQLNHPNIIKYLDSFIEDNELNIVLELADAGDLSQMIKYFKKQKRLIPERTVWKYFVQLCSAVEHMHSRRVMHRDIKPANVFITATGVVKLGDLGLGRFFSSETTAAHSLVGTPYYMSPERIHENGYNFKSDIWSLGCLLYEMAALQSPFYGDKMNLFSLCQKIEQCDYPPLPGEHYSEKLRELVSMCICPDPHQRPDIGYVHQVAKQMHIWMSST
T4 sequence (Q15759 whole entry): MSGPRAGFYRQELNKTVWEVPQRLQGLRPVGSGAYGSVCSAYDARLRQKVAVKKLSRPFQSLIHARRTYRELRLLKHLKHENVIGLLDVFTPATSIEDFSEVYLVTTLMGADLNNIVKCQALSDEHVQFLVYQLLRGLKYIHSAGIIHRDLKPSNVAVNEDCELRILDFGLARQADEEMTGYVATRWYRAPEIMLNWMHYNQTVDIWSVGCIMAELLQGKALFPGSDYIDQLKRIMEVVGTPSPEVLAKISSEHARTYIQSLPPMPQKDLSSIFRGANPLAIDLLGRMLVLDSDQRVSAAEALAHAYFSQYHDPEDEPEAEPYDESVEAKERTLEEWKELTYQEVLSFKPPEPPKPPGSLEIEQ
T2 sequence (Q02750 whole entry, species assumed): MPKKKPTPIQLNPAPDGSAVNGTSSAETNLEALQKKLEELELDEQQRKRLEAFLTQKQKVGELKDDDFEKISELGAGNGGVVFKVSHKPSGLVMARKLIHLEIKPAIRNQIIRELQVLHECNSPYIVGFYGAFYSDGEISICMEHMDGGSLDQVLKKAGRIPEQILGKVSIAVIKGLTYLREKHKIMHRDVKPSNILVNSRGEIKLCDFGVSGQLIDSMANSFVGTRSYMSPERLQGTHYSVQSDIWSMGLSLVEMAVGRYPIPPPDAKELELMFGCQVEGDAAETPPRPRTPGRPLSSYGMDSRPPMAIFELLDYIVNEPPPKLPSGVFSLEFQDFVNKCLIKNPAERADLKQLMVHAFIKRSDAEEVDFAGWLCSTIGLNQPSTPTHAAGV

The inhibition is the share of the control response that was lost under treatment. High values mean a response far below the control, low ones a response near the control. In the case of `Clc1ccc(Nc2nccc(-c3nccs3)n2)cn1` [Compound XIV, (6-Chloro-pyridin-3-yl)-(4-thiazol-2-yl-pyrimidin-2-yl)-amine], the activity at 1 µM at PRAK turned out to be 83 ± 3%; on MKK1 it was 83 ± 4%; at SAPK2b/p38b2 it was 92 ± 4%; at NEK6, 87 ± 6%; on JNK/SAPK1c ([ATP] 20 μM) it was 56 ± 4%; on PKBdelta PH, 98 ± 1%. Further, on PDK1, the activity at 1 µM is 85 ± 5%. The figures for the Ki on CDK2/cyclin A, on CDK1/cyclin B1 (read-out: Ki CDK1/cyclin B) and at CDK2/cyclin E were greater than 50 µM, greater than 100 µM and 5.5 µM, respectively. Further, the “Fold selectivity for GSK3 over CDK2/cyclin A” value at CDK2/cyclin A (from Ki) was >3,125 fold. The IC50 on CDK2/cyclin A (read-out: Kinase inhibition IC50 CDK2/A) was greater than 50 µM; at CDK1/cyclin B1 (read-out: Kinase inhibition IC50 CDK1/B1), greater than 100 µM; on CDK2/cyclin E (read-out: Kinase inhibition IC50 CDK2/E), 11 µM. At CDK1/cyclin B1 (from Ki), the “Fold selectivity for GSK3 over CDK1/cyclin B” value was >6,250 fold. In addition, the “Selectivity IC50 (CDK2/E)/IC50 (GSK3β)” value on CDK2/cyclin E is listed as 63. In addition, the “Fold selectivity for GSK3 over CDK2/cyclin E” value at CDK2/cyclin E (from Ki) stood at 345 fold. On JNK/SAPK1c, this compound yielded an inhibition at 1 µM of roughly 40%.
